Test results reported in US20160106439A1, “PNEUMATIC TOURNIQUET” (BIONUMERIK PHARMACEUTICALS, INC., priority 2013, published 2016).
Read-outs that look alike come from different tables or passages of the source.

Legend:
[1] = target: T1, human glutaredoxin (Grx1) (Homo sapiens, UniProt P35754); assay: Mass Spectroscopy of Grx-Tavocept reaction; assay type: binding; details: 40 mM Tavocept, 4° C. overnight
T1 construct: 6xHis (TEV-cleavable) (N, cleaved yes); made in house; host or cells: E. coli BL21 (RIPL)

human cancer cell lines = assay: Interference with paclitaxel- and platinum-induced cytotoxicity; assay type: cell-based
Text: Tavocept mediates the non-enzymatic xenobiotic modification of sulfur-containing amino acid residues (e.g., cysteine) on proteins. As an engineered, non-naturally occurring agent (i.e., xenobiotic), Tavocept is autocatalytic and requires no protein cofactor to cause the xenobiotic modification of cysteine, but appears to be specific for cysteine residues located within a particular structural context (i.e., not all cysteines in a protein are so modified). Tavocept-mediated, xenobiotic modification represents a novel mechanism of action for a cancer treating agent and can be compared to a degree with post-translational modifications of cysteine residues in proteins (see, Table 3, below).

recombinant human MET = recombinant human MET (Homo sapiens, UniProt P08581); assay: biochemical
Procedure: The substrate that was phosphorylated by the kinase, polyglutamate-tyrosine (PolyGT), was purchased from SignalChem (Cat. #P61-58, lot #R098-4).
All other reagents were purchased from Sigma Aldrich. A Tecan Ultra microplate reader with XFluor4 software (Tecan, V4.51) and RdrOle software (Tecan, V4.50) were used in this study.
MET phosphorylated the polyGT substrate using the ATP cofactor and produced ADP. […] For most assays, a stock of ATP (1 mM) and PolyGT (1 mg/mL) was used. […] The reactions, in microplate, were incubated for 60 minutes at 25° C. on a heat block. Following this 60 minute incubation, the kinase activity was evaluated using the ADP-Glo system from Promega that monitored ADP produced when MET phosphorylated the PolyGT substrate.
Kinase assays were run in triplicate or quadruplicate in microplates. Following this, the ADP-Glo detection system (Promega) was used to determine how much ADP had been produced. For 10 μL volume assays, to each microplate well containing 10 μL of kinase reaction was added ADP-Glo reagent (10 μL), plates were spun in a table top centrifuge (1000 rpm (123×g) for 1 minute) to ensure no reagent remained on the well walls, and then agitated for 1 minute to ensure optimal mixing. Plates were incubated at 25 C on a heat block for 40 minutes. Next, kinase detection reagent (20 μL) was added and, as above, centrifugation and agitation were repeated; plates were allowed to incubate at 25° C. on a heat block for 30 minutes. Following the incubation of the kinase detection reagent, plates were read on a Tecan Ultra microplate reader. The Tecan Ultra contained a built-in plate definition file for the whole area 96-well white Corning plates but a plate definition file for the half area 96-well Corning plates was created using the RdrOle component of the Tecan Ultra software.
Kinases vary in their ability to turnover ATP in vitro; therefore, the activity of the MET over a concentration range from 0.78 ng to 20 ng was evaluated in assay volumes of 10 μL. See, FIG. 7.
Therefore, each mole of polymer of 20,000 g/mole would contain approximately 28 moles of the glu-glu-glu-glu-tyr “subpolymer” in a 10 μL assay volume containing 1 μg of the polyGT substrate. […] This was a vast excess of possible tyrosine phosphorylation sites, ensuring that the substrate for phosphorylation was not rate limiting (assuming the higher mass range would produce an even larger excess of glu-glu-glu-glu-tyr “subpolymers”).
Data from MET assays run on the Tecan Ultra microplate spectrophotometer were collected in Microsoft Excel. Error calculations and graphical representations were performed in Microsoft Office Excel (Microsoft Corporation, Redmond, Wash., USA). Determination of IC25 and IC50 values were accomplished using Origin Lab software (OriginLab Corporation, Northampton, Mass., USA).

bovine TrxR = target: T2, bovine TrxR (Bos taurus, UniProt O62768); assay: NADPH oxidation assay, Reaction A (TrxR alone); assay type: biochemical; details: without Trx, disulfide 0.5 mM
T2 construct: purchased American Diagnostica
Procedure: See, Luthman M and Holmgren A. Rat liver thioredoxin and thioredoxin reductase: purification and characterization. Biochemistry 21:6628-6633 (1982). A typical assay mixture contained buffer (50 mM potassium phosphate, pH 7.0, 1 mM EDTA), NADPH (200 μM), and bovine TrxR (1.6 μg, 0.138 μM). Assays were run with and without recombinant human Trx (4.8 μM). […] All disulfides were added to reactions as 10x solutions in buffer. The total volume of each reaction was 0.1 mL. Reactions were initiated by the addition of TrxR and were incubated at 25° C. for 40 minutes. Reactions were analyzed using a Molecular Devices SpectraMax Plus UV/vis plate reader and the activity was calculated using a 4 minute linear portion of each assay.

[2] = target: T3, recombinant human farnesyltransferase (Homo sapiens, UniProt P49354+P49356); assay: Farnesyltransferase Dansyl-GCVLS fluorescence assay; assay type: biochemical; details: 25 nM FTase, 3 μM Dansyl-GCVLS, 25° C.
T3 construct: purchased Abcam
Procedure: Tavocept-inhibited human farnesyltransferase-mediated transfer of farnesylpyrophosphate to the cysteine residue in a danyslated peptide substrate of sequence glycine-cysteine-valine-leucine-serine (designated-Dansyl-GCVLS) in vitro. See, FIG. 79. The assay reactions contained 25 nM recombinant human farnesyltransferase (Abcam), 10 μM farnesylpyrophosphate (SigmaAldrich), 3 μM Dansyl-GCVLS (NeoBioScience) in Tris buffer (50 mM, pH 7.5) containing 5 mM MgCl2, 10 μM ZnCl2, and 0.2% octyl-β-D-glucopyranoside. Total assay volumes were 50 μL and the reactions were initiated by the addition of FTase (5 μL of 250 nM stock was added to 45 μL of assay components listed above). The excitation wavelength was 340 nm (a 340 nm filter with 25 nm bandpass) and the emission wavelength was […] (505 nm filter with 20 nm bandpass) and the assay temperature was 25° C. Progress curves of the transfer of the farnesylpyrophosphate to the Dansyl-GCVLS substrate are shown in FIG. 79, Panel A and relative rates of the progress curve were determined and are shown in FIG. 79, Panel B.

Chain of recombinant human MET (P08581 956-1390 limits assumed): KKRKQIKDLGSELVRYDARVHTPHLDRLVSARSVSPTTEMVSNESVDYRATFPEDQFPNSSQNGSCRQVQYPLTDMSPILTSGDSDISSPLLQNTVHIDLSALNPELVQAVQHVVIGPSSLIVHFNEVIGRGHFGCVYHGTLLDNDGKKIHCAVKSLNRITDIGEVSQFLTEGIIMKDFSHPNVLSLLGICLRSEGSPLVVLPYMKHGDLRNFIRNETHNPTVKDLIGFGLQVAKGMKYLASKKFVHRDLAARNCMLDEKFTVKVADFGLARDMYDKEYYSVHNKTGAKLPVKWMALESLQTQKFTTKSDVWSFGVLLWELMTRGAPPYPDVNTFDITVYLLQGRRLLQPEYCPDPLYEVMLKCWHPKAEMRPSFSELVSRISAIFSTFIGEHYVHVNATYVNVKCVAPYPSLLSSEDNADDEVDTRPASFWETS
T2 sequence (O62768 whole entry): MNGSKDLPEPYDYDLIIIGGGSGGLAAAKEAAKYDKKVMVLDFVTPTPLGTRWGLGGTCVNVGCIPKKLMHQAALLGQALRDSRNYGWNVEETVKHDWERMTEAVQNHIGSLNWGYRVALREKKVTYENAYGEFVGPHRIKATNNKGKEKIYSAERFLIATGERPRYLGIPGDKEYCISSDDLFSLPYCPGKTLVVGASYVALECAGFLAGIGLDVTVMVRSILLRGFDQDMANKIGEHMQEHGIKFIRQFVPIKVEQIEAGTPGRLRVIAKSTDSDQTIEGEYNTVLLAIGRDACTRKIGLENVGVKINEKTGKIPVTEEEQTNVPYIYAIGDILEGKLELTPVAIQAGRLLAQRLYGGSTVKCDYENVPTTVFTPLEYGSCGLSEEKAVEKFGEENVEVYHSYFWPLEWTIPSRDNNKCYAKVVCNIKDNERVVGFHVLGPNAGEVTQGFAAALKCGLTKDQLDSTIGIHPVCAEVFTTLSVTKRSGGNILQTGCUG
T1 sequence (P35754 whole entry): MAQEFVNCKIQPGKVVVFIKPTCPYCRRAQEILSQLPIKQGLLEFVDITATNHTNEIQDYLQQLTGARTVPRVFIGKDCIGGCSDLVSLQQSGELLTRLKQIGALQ
T3 sequence (P49356 whole entry, one chain of several): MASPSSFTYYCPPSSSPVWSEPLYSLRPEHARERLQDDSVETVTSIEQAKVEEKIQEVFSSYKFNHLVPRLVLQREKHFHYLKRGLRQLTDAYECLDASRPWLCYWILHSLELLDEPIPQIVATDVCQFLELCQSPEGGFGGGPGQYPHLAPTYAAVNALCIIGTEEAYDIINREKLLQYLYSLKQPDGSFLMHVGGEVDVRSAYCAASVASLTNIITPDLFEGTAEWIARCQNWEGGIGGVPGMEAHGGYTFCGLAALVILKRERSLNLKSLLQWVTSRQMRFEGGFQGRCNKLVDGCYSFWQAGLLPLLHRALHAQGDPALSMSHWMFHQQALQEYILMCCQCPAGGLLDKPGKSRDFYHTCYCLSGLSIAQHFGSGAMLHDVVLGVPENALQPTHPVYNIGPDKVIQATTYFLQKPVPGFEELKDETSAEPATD

Q: How did the “Tavocept-derived mesna adducts per molecule of Grx” value [1] turn out when `O=S(=O)([O-])CCSSCCS(=O)(=O)[O-].[Na+].[Na+]` [Tavocept, disodium 2,2′-dithio-bis-ethane sulfonate] was run?
A: one to two

Q: What about the “interference with paclitaxel- and platinum-induced cytotoxicity” value (human cancer cell lines) of the same compound?
A: not to interfere

Q: And the “greater inhibition of MET than Staurosporine alone” value (“greater inhibition” for short) (recombinant human MET; 10 μM ATP, MET 0.1 ng/μL, 5 mM Tavocept + 100 nM Staurosporine)?
A: 22%

Q: What about the “greater inhibition” value (recombinant human MET; 10 μM ATP, MET 0.1 ng/μL, 5 mM Tavocept + 300 nM Staurosporine) of the same compound?
A: 8%

Q: And the “greater inhibition” value (recombinant human MET; 10 μM ATP, MET 0.1 ng/μL, 10 mM Tavocept + 100 nM Staurosporine)?
A: 23%

Q: And the “greater inhibition” value (recombinant human MET; 10 μM ATP, MET 0.1 ng/μL, 10 mM Tavocept + 300 nM Staurosporine)?
A: 8%

Q: And the IC50 (recombinant human MET; IC50, MET 2.5 ng/μL, ATP 100 μM)?
A: > 40 mM

Q: What about the IC50 (recombinant human MET; IC50 on MET, 10 μM ATP, 0.1 ng/μL MET) of the same compound?
A: 15.2 ± 0.36 mM

Q: And the IC50 (recombinant human MET; IC50 on MET, 10 μM ATP, 2.5 ng/μL MET, single experiment)?
A: 17.4 mM

Q: What about the IC50 (recombinant human MET; IC50 on MET, 100 μM ATP, 0.1 ng/μL MET, single experiment) of the same compound?
A: 37.1 mM

Q: What about the IC50 (recombinant human MET; IC50 on MET, 100 μM ATP, 2.5 ng/μL MET) of the same compound?
A: > 40 mM

Q: What about the inhibition at 5000 µM (recombinant human MET; read-out: greater inhibition of MET than Crizotinib alone, 10 μM ATP, MET 0.1 ng/μL, 5 mM Tavocept + 20 nM Crizotinib) of the same compound?
A: 10%

Q: And the inhibition at 5000 µM (recombinant human MET; read-out: greater inhibition of MET than Crizotinib alone, 10 μM ATP, MET 0.1 ng/μL, 5 mM Tavocept + 40 nM Crizotinib)?
A: 6%

Q: What about the inhibition at 10000 µM (recombinant human MET; read-out: greater inhibition of MET than Crizotinib alone, 10 μM ATP, MET 0.1 ng/μL, 10 mM Tavocept + 20 nM Crizotinib) of the same compound?
A: 16%

Q: What about the inhibition at 10000 µM (recombinant human MET; read-out: greater inhibition of MET than Crizotinib alone, 10 μM ATP, MET 0.1 ng/μL, 10 mM Tavocept + 40 nM Crizotinib) of the same compound?
A: 11%

Q: And the inhibition at 5000 µM (recombinant human MET; read-out: greater inhibition of MET than Crizotinib alone, 100 μM ATP, MET 2.5 ng/μL, 5 mM Tavocept + 45 nM Crizotinib)?
A: 15%

Q: And the inhibition at 5000 µM (recombinant human MET; read-out: greater inhibition of MET than Crizotinib alone, 100 μM ATP, MET 2.5 ng/μL, 5 mM Tavocept + 90 nM Crizotinib)?
A: 10%

Q: What about the inhibition at 10000 µM (recombinant human MET; read-out: greater inhibition of MET than Crizotinib alone, 100 μM ATP, MET 2.5 ng/μL, 10 mM Tavocept + 45 nM Crizotinib) of the same compound?
A: 14%

Q: And the inhibition at 10000 µM (recombinant human MET; read-out: greater inhibition of MET than Crizotinib alone, 100 μM ATP, MET 2.5 ng/μL, 10 mM Tavocept + 90 nM Crizotinib)?
A: 10%

Q: What about the inhibition at 5000 µM (recombinant human MET; read-out: greater inhibition of MET than Staurosporine alone, 10 μM ATP, MET 0.1 ng/μL, 5 mM Tavocept + 100 nM Staurosporine) of the same compound?
A: 22%

Q: What about the inhibition at 5000 µM (recombinant human MET; read-out: greater inhibition of MET than Staurosporine alone, 10 μM ATP, MET 0.1 ng/μL, 5 mM Tavocept + 300 nM Staurosporine) of the same compound?
A: 8%

Q: And the inhibition at 10000 µM (recombinant human MET; read-out: greater inhibition of MET than Staurosporine alone, 10 μM ATP, MET 0.1 ng/μL, 10 mM Tavocept + 100 nM Staurosporine)?
A: 23%

Q: What about the inhibition at 10000 µM (recombinant human MET; read-out: greater inhibition of MET than Staurosporine alone, 10 μM ATP, MET 0.1 ng/μL, 10 mM Tavocept + 300 nM Staurosporine) of the same compound?
A: 8%

Q: And the “Reduction of disulfide by TrxR alone” value (bovine TrxR)?
A: did not detectably reduce

Q: What about the Inhibition of farnesylation [2] of the same compound?
A: inhibits farnesylation in a concentration-dependent manner
